Key:
Format in all cases: cell-based
[1] = system: NCI-H1155, ABC-1 and EBC-1, NCI-H2023 cell lines; assay: Viability assay (CellTiter-Glo) in N-Myc high and N-Myc low NSCLC cell lines; conditions: 72 hours
Procedure: The anti-proliferative activity of compound 10 was tested on representative N-Myc high and N-Myc low cell lines (NCI-H1155, ABC-1 and EBC-1, NCI-H2023, respectively) following treatment with compound for 72 hours. Cells were sub-cultures as recommended by the providers (ATCC, DSMZ) and incubated at 37° C., 5% CO2. All cells were authenticated and confirmed by Short Tandem Repeat (STR) profiling. Briefly, cells were seeded to the appropriate density to allow logarithmic growth over the assay period in 96-well opaque-walled clear bottom plates (from Corning, Cat. No. 3903, Lot. No. 16419061; 100 μL total volume) and incubated overnight. […] Cell viability was assessed using the CellTiter-Glo assay kit as recommended by the Manufacturer (Promega, Cat. No. G7558, Lot. No. 0000385738) and measurements performed on the EnSpire multimode plate reader (Perkin Elmer). EC50 values were determined using Prism8 (GraphPad) and the asymmetric (five-parameter) equation and least squares fit. GSPT1 levels were assessed in the NCI-H1155 and ABC-1 cell lines by densitometry analysis following treatment with compound 10 for 6 hours and western blotting analysis. […] For chemiluminescence and colorimetric signals “optimal automatic exposure” settings (3×3 binning) were employed while fluorescence was detected using 1-4 seconds exposure time to achieve best GAPDH signals and avoid overexposure. […]

GSPT1 [2] = target: T1, GSPT1 (Homo sapiens, UniProt P15170+Q96SW2); assay: GSPT1 degradation in ABC-1 cells; design: endogenous in cells
T1 sequence (P15170 whole entry): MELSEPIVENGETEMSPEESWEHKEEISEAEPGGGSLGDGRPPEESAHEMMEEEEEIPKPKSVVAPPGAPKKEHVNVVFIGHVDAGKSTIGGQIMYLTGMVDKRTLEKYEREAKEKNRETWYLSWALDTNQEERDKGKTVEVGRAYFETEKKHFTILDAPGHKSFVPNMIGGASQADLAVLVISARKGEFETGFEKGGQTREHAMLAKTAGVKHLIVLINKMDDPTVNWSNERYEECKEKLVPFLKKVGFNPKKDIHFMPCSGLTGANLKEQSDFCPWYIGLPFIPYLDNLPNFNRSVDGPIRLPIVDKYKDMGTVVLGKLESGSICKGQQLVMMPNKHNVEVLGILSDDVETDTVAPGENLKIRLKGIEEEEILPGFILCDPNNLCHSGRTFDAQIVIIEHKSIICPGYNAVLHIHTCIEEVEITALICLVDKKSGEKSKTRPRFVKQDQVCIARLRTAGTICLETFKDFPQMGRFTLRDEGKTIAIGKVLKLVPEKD
T1 sequence (Q96SW2 whole entry): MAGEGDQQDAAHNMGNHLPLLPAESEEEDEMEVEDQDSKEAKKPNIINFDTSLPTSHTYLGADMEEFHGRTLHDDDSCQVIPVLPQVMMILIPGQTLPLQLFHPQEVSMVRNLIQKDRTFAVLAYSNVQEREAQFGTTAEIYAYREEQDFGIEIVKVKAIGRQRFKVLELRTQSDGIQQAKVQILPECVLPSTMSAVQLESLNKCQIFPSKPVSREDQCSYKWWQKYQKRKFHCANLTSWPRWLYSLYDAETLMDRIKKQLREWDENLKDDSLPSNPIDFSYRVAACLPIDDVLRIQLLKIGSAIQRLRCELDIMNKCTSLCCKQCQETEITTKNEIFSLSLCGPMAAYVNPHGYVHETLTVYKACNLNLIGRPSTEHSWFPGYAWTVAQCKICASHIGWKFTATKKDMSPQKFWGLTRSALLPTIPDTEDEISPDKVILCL
T1 sequence (Q16531 2-1140 partner limits assumed): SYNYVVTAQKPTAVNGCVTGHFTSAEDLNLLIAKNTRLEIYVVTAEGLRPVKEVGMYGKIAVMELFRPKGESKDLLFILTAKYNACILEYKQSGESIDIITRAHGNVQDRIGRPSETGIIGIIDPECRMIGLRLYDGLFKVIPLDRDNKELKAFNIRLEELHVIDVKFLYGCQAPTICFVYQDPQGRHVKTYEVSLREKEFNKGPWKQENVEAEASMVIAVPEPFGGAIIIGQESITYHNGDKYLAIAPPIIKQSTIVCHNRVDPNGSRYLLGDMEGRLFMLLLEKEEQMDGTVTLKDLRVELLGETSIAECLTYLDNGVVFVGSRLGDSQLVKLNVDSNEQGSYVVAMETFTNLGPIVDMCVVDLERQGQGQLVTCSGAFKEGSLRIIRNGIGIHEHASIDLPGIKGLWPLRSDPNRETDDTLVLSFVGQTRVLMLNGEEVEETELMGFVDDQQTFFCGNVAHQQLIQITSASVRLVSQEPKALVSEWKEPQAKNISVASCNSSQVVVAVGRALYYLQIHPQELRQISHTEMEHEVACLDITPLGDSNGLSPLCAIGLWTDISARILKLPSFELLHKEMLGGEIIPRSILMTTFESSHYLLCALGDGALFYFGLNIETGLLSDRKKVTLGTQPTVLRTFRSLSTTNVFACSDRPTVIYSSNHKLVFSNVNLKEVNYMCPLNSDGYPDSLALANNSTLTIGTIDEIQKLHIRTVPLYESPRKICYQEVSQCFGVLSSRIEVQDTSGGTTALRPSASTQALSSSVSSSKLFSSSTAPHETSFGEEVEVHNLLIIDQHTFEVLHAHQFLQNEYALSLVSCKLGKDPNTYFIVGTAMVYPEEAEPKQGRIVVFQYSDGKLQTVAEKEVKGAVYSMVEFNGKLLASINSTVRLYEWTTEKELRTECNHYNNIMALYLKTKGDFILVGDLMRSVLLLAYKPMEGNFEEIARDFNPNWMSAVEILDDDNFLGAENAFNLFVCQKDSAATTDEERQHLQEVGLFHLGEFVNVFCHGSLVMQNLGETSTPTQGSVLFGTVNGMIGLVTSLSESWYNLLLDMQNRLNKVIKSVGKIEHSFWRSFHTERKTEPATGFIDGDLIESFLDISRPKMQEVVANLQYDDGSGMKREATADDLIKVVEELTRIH
Procedure: GSPT1 was degraded by compound 10 after six hours of treatment in high N-Myc NCI-H1155 and ABC-1 cells with a DC50 of 3 nM and 22 nM, respectively (x-axys represents […]M concentration of compound 10; y-axis represents the viability in %).

GSPT1 [3] = target: T1, GSPT1; assay: Quantitative proteomics analysis in ABC1 cells; conditions: 100 nM, 6 hr
Procedure: Quantitative Proteomics Analysis: ABC1 cells were treated with either DMSO (2 replicates) or compound 10 at 100 nM (2 replicates) for 6 hr. Proteins were extracted with the PreOmics iST-NHS lysis buffer (#P.O.00030). The samples were then processed using the PreOmics kit following their recommended protocol with minor modifications. In brief, the proteins were reduced, alkylated and digested for 2 h at 37° C. The peptides were then labelled with TMT reagent (1:4; peptide:TMT label) (Thermo Fisher Scientific). After quenching, the peptides were purified, and the 16 samples were combined to a 1:1 ratio. […] Eluted TMT peptides were analyzed on an Orbitrap Eclipse mass spectrometer (Thermo Fisher Scientific). […] Precursors were fragmented by CID at a normalized collision energy (NCE) of 35% and analyzed in the ion trap. Following MS2, synchronous precursor selection (SPS) MS3 scans were collected by using high energy collision-induced dissociation (HCD) and fragments were analyzed using the Orbitrap (NCE 55%, AGC target 1×10^5, maximum injection time 120 ms, resolution 60,000). Protein identification and quantification were performed using Proteome Discoverer 2.4.0.305 with the SEQUEST algorithm and Uniprot human database (2021-01-29, 20614 protein sequences). […] Protein relative quantification was performed using an in-house developed java notebook. […]

extent of GSPT1 degradation (GSPT1 [2]): complete degradation
SMILES: Cc1ccc(NC(=O)OCc2ccc3c(c2)C(=O)N(C2CCC(=O)NC2=O)C3)cc1Cl (stereo not drawn) [Compound 10]
Sensitivity (anti-proliferative activity) versus N-Myc expression (FIG. 2A) [1]: sensitivity correlated with the expression of N-Myc | Protein downregulation in mass spectrometry-based proteomics (FIG. 1B) (GSPT1 [3]): GSPT1 was the most statistically significant downregulated protein
